Assay results published in ChEMBL document CHEMBL1201862, “PubChem BioAssay data set” (2004).
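Briefly, cells in 96-well plates were exposed to five compound concentrations for 48 h, and endpoints were estimated by linear interpolation. Abbreviation: GI50, concentration required for 50% inhibition of growth.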 Active and inactive are the calls of the source. No stated cut-off is given here; in the data, active = GI50 up to about 1.1 µM and inactive = higher.

Tests used:
Assay in all cases: NCI-60 cell line screen, 48 h
NCI-H226 = tested on: NCI-H226
HT-29 = tested on: HT-29
MDA-N = tested on: MDA-N
NCI/ADR-RES = tested on: NCI/ADR-RES
DU-145 = tested on: DU-145
OVCAR-4 = tested on: OVCAR-4
NCI-H460 = tested on: NCI-H460
SF-295 = tested on: SF-295
HCT-15 = tested on: HCT-15
MOLT-4 = tested on: MOLT-4
IGROV-1 = tested on: IGROV-1
EKVX = tested on: EKVX
UACC-62 = tested on: UACC-62
UACC-257 = tested on: UACC-257
NCI-H23 = tested on: NCI-H23
OVCAR-8 = tested on: OVCAR-8
ACHN = tested on: ACHN
SK-MEL-5 = tested on: SK-MEL-5
T47D = tested on: T47D
LOX IMVI = tested on: LOX IMVI
RPMI-8226 = tested on: RPMI-8226
M14 = tested on: M14
HCT-116 = tested on: HCT-116
786-0 = tested on: 786-0
NCI-H522 = tested on: NCI-H522
MDA-MB-231 = tested on: MDA-MB-231
SK-OV-3 = tested on: SK-OV-3
K562 = tested on: K562
RXF 393 = tested on: RXF 393
SNB-75 = tested on: SNB-75
UO-31 = tested on: UO-31
KM12 = tested on: KM12
SNB-19 = tested on: SNB-19
MDA-MB-435 = tested on: MDA-MB-435
SN12C = tested on: SN12C
OVCAR-3 = tested on: OVCAR-3
OVCAR-5 = tested on: OVCAR-5
Hs-578T = tested on: Hs-578T
TK-10 = tested on: TK-10
MCF7 = tested on: MCF7
COLO 205 = tested on: COLO 205
SF-268 = tested on: SF-268
PC-3 = tested on: PC-3
CCRF-CEM = tested on: CCRF-CEM
U-251 = tested on: U-251
Malme-3M = tested on: Malme-3M
SR = tested on: SR
SF-539 = tested on: SF-539
HL-60 = tested on: HL-60
SK-MEL-28 = tested on: SK-MEL-28
HCC 2998 = tested on: HCC 2998
A549 = tested on: A549
CAKI-1 = tested on: CAKI-1
HOP-62 = tested on: HOP-62
HOP-92 = tested on: HOP-92
SW-620 = tested on: SW-620
SK-MEL-2 = tested on: SK-MEL-2
A498 = tested on: A498

For `C=C(C)[C@]12CC(C)C34OC(/C=C\C=C\CCCCCCCCC)(O[C@@H]1[C@@H]3[C@@H]1O[C@]1(CO)[C@@H](O)[C@]1(O)C(=O)C(C)=C[C@@H]41)O2` (some centres not stated), the GI50 (NCI-H226) was 18 µM (inactive), the GI50 (HT-29) was 2.21 µM (inactive) and the GI50 (MDA-N) was 0.01 µM (active). The GI50 (NCI/ADR-RES) was 18.5 µM (inactive), the GI50 (DU-145) was 8.38 µM (inactive) and the GI50 (OVCAR-4) was 9.93 µM (inactive). For the same compound, the GI50 (NCI-H460) was 0.01 µM (active), the GI50 (SF-295) was 0.01 µM (active) and the GI50 (HCT-15) was 12.4 µM. The GI50 (MOLT-4) was 2.14 µM (inactive), the GI50 (IGROV-1) was 14.8 µM (inactive) and the GI50 (EKVX) was 13.4 µM (inactive). The GI50 (UACC-62) was 10 µM (inactive), the GI50 (UACC-257) was 14.7 µM (inactive) and the GI50 (NCI-H23) was 14.4 µM (inactive). The GI50 (OVCAR-8) was 16.3 µM (inactive), the GI50 (ACHN) was 5.61 µM (inactive) and the GI50 (SK-MEL-5) was 11.7 µM (inactive). For the same compound, the GI50 (T47D) was 11.9 µM (inactive), the GI50 (LOX IMVI) was 0.026 µM (active) and the GI50 (RPMI-8226) was 11.9 µM (inactive). For the same compound, the GI50 (M14) was 13.1 µM (inactive), the GI50 (HCT-116) was 7.48 µM (inactive) and the GI50 (786-0) was 6.35 µM (inactive). For the same compound, the GI50 (NCI-H522) was 14.7 µM (inactive), the GI50 (MDA-MB-231) was 0.01 µM (active) and the GI50 (SK-OV-3) was 20.3 µM (inactive). The GI50 (K562) was 0.0103 µM (active), the GI50 (RXF 393) was 14.8 µM (inactive) and the GI50 (SNB-75) was 5.07 µM (inactive). For the same compound, the GI50 (UO-31) was 11.2 µM (inactive), the GI50 (KM12) was 6.97 µM (inactive) and the GI50 (SNB-19) was 16.6 µM (inactive). For the same compound, the GI50 (MDA-MB-435) was 0.0223 µM (active), the GI50 (SN12C) was 2.42 µM (inactive) and the GI50 (OVCAR-3) was 6.41 µM (inactive). For the same compound, the GI50 (OVCAR-5) was 17.1 µM (inactive), the GI50 (Hs-578T) was 0.01 µM (active) and the GI50 (TK-10) was 0.000288 µM (active). For the same compound, the GI50 (MCF7) was 10.6 µM (inactive), the GI50 (COLO 205) was 0.0001 µM (active) and the GI50 (SF-268) was 12.8 µM (inactive). For the same compound, the GI50 (PC-3) was 2 µM (inactive), the GI50 (CCRF-CEM) was 2.52 µM (inactive) and the GI50 (U-251) was 15.5 µM (inactive). The GI50 (Malme-3M) was 0.535 µM (active), the GI50 (SR) was 2.16 µM (inactive) and the GI50 (SF-539) was 0.01 µM (active). The GI50 (HL-60) was 0.0103 µM (active), the GI50 (SK-MEL-28) was 12.1 µM (inactive) and the GI50 (HCC 2998) was 0.01 µM (active). For the same compound, the GI50 (A549) was < 0.012 µM (active).

With `N#C/C(C(=S)Nc1ccccc1)=C(/N)N1CCCC1` the GI50 (NCI-H226) was > 100 µM (inactive), the GI50 (HT-29) was > 100 µM (inactive) and the GI50 (MDA-N) was > 100 µM (inactive). The GI50 (NCI/ADR-RES) was > 100 µM (inactive), the GI50 (DU-145) was > 100 µM (inactive) and the GI50 (OVCAR-4) was > 100 µM (inactive). The GI50 (NCI-H460) was > 100 µM (inactive), the GI50 (SF-295) was > 100 µM (inactive) and the GI50 (HCT-15) was > 100 µM. The GI50 (MOLT-4) was > 100 µM (inactive), the GI50 (IGROV-1) was > 100 µM (inactive) and the GI50 (EKVX) was > 100 µM (inactive). For the same compound, the GI50 (UACC-62) was > 100 µM (inactive), the GI50 (UACC-257) was > 100 µM (inactive) and the GI50 (NCI-H23) was > 100 µM (inactive). The GI50 (OVCAR-8) was > 100 µM (inactive), the GI50 (ACHN) was > 100 µM (inactive) and the GI50 (CAKI-1) was 27.9 µM (inactive). For the same compound, the GI50 (SK-MEL-5) was > 100 µM (inactive), the GI50 (LOX IMVI) was > 100 µM (inactive) and the GI50 (RPMI-8226) was > 100 µM (inactive). For the same compound, the GI50 (M14) was > 100 µM (inactive), the GI50 (HCT-116) was > 100 µM (inactive) and the GI50 (786-0) was > 100 µM (inactive). For the same compound, the GI50 (NCI-H522) was > 100 µM (inactive), the GI50 (MDA-MB-231) was > 100 µM (inactive) and the GI50 (K562) was > 100 µM (inactive). For the same compound, the GI50 (RXF 393) was > 100 µM (inactive), the GI50 (UO-31) was 46.7 µM (inactive) and the GI50 (KM12) was > 100 µM (inactive). The GI50 (SNB-19) was > 100 µM (inactive), the GI50 (MDA-MB-435) was > 100 µM (inactive) and the GI50 (SN12C) was > 100 µM (inactive). The GI50 (OVCAR-3) was > 100 µM (inactive), the GI50 (OVCAR-5) was > 100 µM (inactive) and the GI50 (HOP-62) was > 100 µM (inactive). The GI50 (Hs-578T) was > 100 µM (inactive), the GI50 (TK-10) was > 100 µM (inactive) and the GI50 (MCF7) was > 100 µM (inactive). The GI50 (HOP-92) was 62.5 µM (inactive), the GI50 (COLO 205) was > 100 µM (inactive) and the GI50 (SF-268) was > 100 µM (inactive). The GI50 (PC-3) was > 100 µM (inactive), the GI50 (CCRF-CEM) was > 100 µM (inactive) and the GI50 (U-251) was > 100 µM (inactive). For the same compound, the GI50 (SW-620) was > 100 µM (inactive), the GI50 (Malme-3M) was > 100 µM (inactive) and the GI50 (SR) was > 100 µM (inactive). The GI50 (SF-539) was > 100 µM (inactive), the GI50 (HL-60) was > 100 µM (inactive) and the GI50 (SK-MEL-28) was > 100 µM (inactive). For the same compound, the GI50 (HCC 2998) was > 100 µM (inactive), the GI50 (SK-MEL-2) was > 100 µM (inactive) and the GI50 (A498) was > 100 µM (inactive). The GI50 (A549) was > 100 µM (inactive).
